Tested on: Mfn2 null MEFs
Test: Mitochondrial elongation (aspect ratio) fusogenicity assay
Format: cell-based, mouse
Set-up: % long compare to B: dose or concentration left out as unconfirmed
Details: mitochondrial elongation relative to Cpd B (B01 = 100); Mfn2 null MEFs, compound overnight as printed (FIG. 48)
Description: A cultured murine embryonic fibroblast assay system was used in which mitochondrial elongation (an increase in aspect ratio) reflects enhanced mitochondrial fusion.
A pharmacophore model was generated based on the interactions of HR1 and HR2 domains in the calculated structural model of Mfn2 in the closed conformation. The key features included hydrophobic interactions involving Mfn2 HR1: Val372 and Met376, and aromatic interactions and hydrogen bonding involving Mfn2 HR1 His380. […] A library comprising ˜14 million commercially available compounds was prepared in silico and evaluated using PHASE to fit these criteria. Top ranked hits were clustered, and filtered based on pharmacological properties using Qikprop. The top 55 (see TABLE 4) commercially available small molecules conforming to the model were selected for functional screening and purchased in 1 mg aliquots. […] Images were acquired by confocal microscopy. Each compound was scored for fusogenicity (see e.g., FIG. 24A) and % cell death (see e.g., FIG. 24B).
Cells were excited with 408 nm (Hoechst), […] (MitoTracker Green and Calcein AM, GFP), or 637 nm (TMRE, MitoTracker Orange, Ethidium homodimer-1, and AF594-Dextran) laser diodes. For mitochondrial elongation studies mitochondrial aspect ratio (long axis/short axis) was calculated using automated edge detection and Image J software. Mitochondrial depolarization was calculated as % of green mitochondria visualized on MitoTracker Green and TMRE merged images, expressed as green/(green+yellow mitochondria)×100.

Row | Compound | % long compare to B
1 | CCC(c1nnc(SCC(=O)Nc2sc3c(c2C(N)=O)CCC3)n1Cc1ccccc1)N(C)C (centres unmarked) [1-D1, 2-[2-({4-benzyl-5-[1-(dimethyl-amino)propyl]-4H-1,2,4-triazol-3-yl}sulfanyl)acetamido]-4H,5H,6H-cyclopenta[b]thio-phene-3-carboxamide] | 23%
2 | COc1ccc(-n2cnnc2SCC(=O)Nc2sc3c(c2C(N)=O)CCC3)cc1 [1-D2, 2-(2-{[4-(4-methoxyphenyl)-4H-1,2,4-triazol-3-yl]sul-fanyl}acetamido)-4H,5H,6H-cyclopenta[b]thiophene-3-carboxamide] | 128%
3 | O=C(CSc1nnc2n1CCCCC2)Nc1sc2c(c1C(=O)NCc1ccccc1)CCCC2 [1-D4, N-benzyl-2-(2-{5H,6H,7H,8H,9H-[1,2,4]triazolo[4,3-a]azepin-3-ylsulfanyl}acetamido)-4,5,6,7-tetrahydro-1-benzothiophene-3-carboxamide] | 105%
4 | CC(Sc1nnc(-c2ccccc2)n1Cc1ccco1)C(=O)Nc1sc2c(c1C(N)=O)CCC2 (centres unmarked) [1-D7, 2-[2-({4-[(furan-2-yl)methyl]-5-phenyl-4H-1,2,4-triazol-3-yl}sulfanyl)propanamido]-4H,5H,6H-cyclopenta[b]thio-phene-3-carboxamide] | 92%
5 | Cn1c(CC2CCS(=O)(=O)C2)nnc1SCC(=O)Nc1sc2c(c1C(N)=O)CCC2 (centres unmarked) [1-D9, 2-[2-({5-[(1,1-dioxo-1λ^6-thiolan-3-yl)methyl]-4-methyl-4H-1,2,4-triazol-3-yl}sulfanyl)acetamido]-4H,5H,6H-cyclopenta-[b]thiophene-3-carboxamide] | 5%
6 | CCn1c(SCC(=O)Nc2sc3c(c2C(N)=O)CCC(C)C3)nnc1C1CC1 (centres unmarked) [1-D11, 2-{2-[(5-cyclopropyl-4-ethyl-4H-1,2,4-triazol-3-yl)sulfanyl]acetamido}-6-methyl-4,5,6,7-tetrahydro-1-benzothiophene-3-carboxamide] | 6%
7 | CC(Sc1nnc2n1CCCCC2)C(=O)Nc1sc2c(c1C(N)=O)CCC2 (centres unmarked) [1-D12, 2-(2-{5H,6H,7H,8H,9H-[1,2,4]triazolo[4,3-a]azepin-3-ylsulfanyl}propanamido)-4H,5H,6H-cyclopenta[b]-thiophene-3-carboxamide] | 18%
8 | C=CCn1c(SCC(=O)Nc2sc3c(c2C(N)=O)CCC3)nnc1C1CCCCC1 [1-E1, 2-(2-{[5-cyclohexyl-4-(prop-2-en-1-yl)-4H-1,2,4-triazol-3-yl}sulfanyl]acetamido)-4H,5H,6H-cyclopenta[b]thio-phene-3-carboxamide] | 38%
9 | COc1ccccc1-n1cnnc1SCC(=O)Nc1sc2c(c1C(N)=O)CCC2 [1-E2, 2-(2-{[4-(2-methoxyphenyl)-4H-1,2,4-triazol-3-yl]sulfanyl}acet-amido)-4H,5H,6H-cyclopenta-[b]thiophene-3-carboxamide] | 17%
10 | CC1CCc2c(sc(NC(=O)CSc3nnc(C4CC4)n3Cc3ccccc3)c2C(N)=O)C1 (centres unmarked) [1-E3, 2-{2-[(4-benzyl-5-cyclopropyl-4H-1,2,4-triazol-3-yl)sulfanyl]acetamido}-6-methyl-4,5,6,7-tetrahydro-1-benzothiophene-3-carboxamide] | 11%
11 | COc1ccc(NC(=O)c2c(NC(=O)CSc3nnc(C4CC4)n3C)sc3c2CCCC3)cc1 [1-E4, 2-{2-[(5-cyclopropyl-4-methyl-4H-1,2,4-triazol-3-yl)sulfanyl]acetamido}-N-(4-methoxyphenyl)-4,5,6,7-tetrahydro-1-benzothiophene-3-carboxamide] | 17%
12 | NC(=O)c1c(NC(=O)CSc2nnc(C3CC3)n2-c2ccccc2)sc2c1CCCC2 [1-E5, 2-{2-[(5-cyclopropyl-4-phenyl-4H-1,2,4-triazol-3-yl)sulfanyl]-acetamido}-4,5,6,7-tetrahydro-1-benzothiophene-3-carboxamide] | −3%
13 | CCn1c(SCC(=O)Nc2sc3c(c2C(=O)NCc2ccccc2)CCCC3)nnc1C1CC1 [1-E6, N-benzyl-2-{2-[(5-cyclopropyl-4-ethyl-4H-1,2,4-triazol-3-yl)sulfanyl]acetamido}-4,5,6,7-tetrahydro-1-benzothiophene-3-carboxamide] | 10%
14 | Cc1ccccc1-c1nnc(SCC(=O)Nc2sc3c(c2C(N)=O)CCC3)n1C [1-E7, 2-(2-{[4-methyl-5-(2-methyl-phenyl)-4H-1,2,4-triazol-3-yl]sulfanyl}acetamido)-4H,5H,6H-cyclopenta[b]-thiophene-3-carboxamide] | 9%
15 | CC(Sc1nccn1-c1cccc(F)c1)C(=O)Nc1sc2c(c1C(N)=O)CCC2 (centres unmarked) [1-E8, 2-(2-{[1-(3-fluorophenyl)-1H-imidazol-2-yl]sulfanyl}pro-panamido)-4H,5H,6H-cyclo-penta[b]thiophene-3-carboxamide] | 5%
16 | CC(Sc1nnc(CC2CCS(=O)(=O)C2)n1C)C(=O)Nc1sc2c(c1C(N)=O)CCC2 (centres unmarked) [1-E9, 2-[2-({5-[(1,1-dioxo-1λ^6-thiolan-3-yl)methyl]-4-methyl-4H-1,2,4-triazol-3-yl}sulfanyl)propanamido]-4H,5H,6H-cyclopenta[b]thio-phene-3-carboxamide] | 0%
17 | Cc1cccc(-n2ccnc2SC(C)C(=O)Nc2sc3c(c2C(N)=O)CCC3)c1C (centres unmarked) [1-E10, 2-(2-{[1-(2,3-dimethylphenyl)-1H-imidazol-2-yl]sulfanyl}pro-panamido)-4H,5H,6H-cyclo-penta[b]thiophene-3-carboxamide] | 21%
18 | NC(=O)c1c(NC(=O)CSc2nnc(-c3ccco3)n2-c2ccccc2)sc2c1CCC2 [1-F1, 2-(2-{[5-(furan-2-yl)-4-phenyl-4H-1,2,4-triazol-3-yl]sulfanyl}-acetamido)-4H,5H,6H-cyclo-penta[b]thiophene-3-carboxamide] | 21%
19 | C=CCn1c(SCC(=O)Nc2sc3c(c2C(N)=O)CCC3)nnc1-c1ccccc1 [1-F2, 2-(2-{[5-phenyl-4-(prop-2-en-1-yl)-4H-1,2,4-triazol-3-yl]sulfanyl}acetamido)-4H,5H,6H-cyclopenta[b]thio-phene-3-carboxamide] | −10%
20 | Cc1ccc(-n2c(C)nnc2SCC(=O)Nc2sc3c(c2C(N)=O)CCC3)cc1 [1-F3, 2-(2-{[5-methyl-4-(4-methylphenyl)-4H-1,2,4-triazol-3-yl]sulfanyl}acetamido)-4H,5H,6H-cyclopenta[b]-thiophene-3-carboxamide] | 13%
21 | COc1ccccc1-n1c(C)nnc1SCC(=O)Nc1sc2c(c1C(N)=O)CCCC2 [1-F4, 2-(2-{[4-(2-methoxyphenyl)-5-methyl-4H-1,2,4-triazol-3-yl]sulfanyl}acetamido)-4,5,6,7-tetrahydro-1-benzothiophene-3-carboxamide] | 22%
22 | CCn1c(SCC(=O)Nc2sc3c(c2C(N)=O)CCCC3)nnc1C1CC1 [1-F5, 2-{2-[(5-cyclopropyl-4-ethyl-4H-1,2,4-triazol-3-yl)sulfanyl]acet-amido}-4,5,6,7-tetrahydro-1-benzothiophene-3-carboxamide] | −7%
23 | CC(c1nnc(SCC(=O)Nc2sc3c(c2C(N)=O)CCC3)n1-c1ccc(F)cc1)N(C)C (centres unmarked) [1-F6, 2-[2-({5-[1-(dimethylamino)ethyl]-4-(4-fluorophenyl)-4H-1,2,4-triazol-3-yl}sulfanyl)acetamido]-4H,5H,6H-cyclopenta[b]thio-phene-3-carboxamide] | 30%
24 | CC(Sc1nnc(-c2cccs2)n1-c1ccccc1)C(=O)Nc1sc2c(c1C(N)=O)CCC2 (centres unmarked) [1-F7, 2-(2-{[4-phenyl-5-(thiophen-2-yl)-4H-1,2,4-lriazol-3-yl]sul-fanyl}propanamido)-4H,5H,6H-cyclopenta[b]thiophene-3-carboxamide] | −26%
25 | CC(Sc1nnc(-c2c[nH]c3ccccc23)n1C1CC1)C(=O)Nc1sc2c(c1C(N)=O)CCC2 (centres unmarked) [1-F8, 2-(2-{[4-cyclopropyl-5-(1H-indol-3-yl)-4H-1,2,4-triazol-3-yl]sulfanyl}propanamido)-4H,5H,6H-cyclopenta[b]-thiophene-3-carboxamide] | 2%
26 | C=CCn1c(SCC(=O)Nc2sc3c(c2C(N)=O)CCCC3)nnc1C1CC1 [1-F9, 2-(2-{[5-cyclopropyl-4-(prop-2-en-1-yl)-4H-1,2,4-triazol-3-yl]sulfanyl}acet-amido)-4,5,6,7-tetrahydro-1-benzothiophene-3-carboxamide] | 202%
27 | CC(Sc1nnc(-c2cccnc2)n1Cc1ccco1)C(=O)Nc1sc2c(c1C(N)=O)CCC2 (centres unmarked) [1-F10, 2-[2-({4-[(furan-2-yl)methyl]-5-(pyridin-3-yl)-4H-1,2,4-triazol-3-yl}sulfanyl)propanamido]-4H,5H,6H-cyclopenta[b]-thiophene-3-carboxamide] | 29%
28 | NC(=O)c1c(NC(=O)CSc2nnc(-c3cccnc3)n2-c2ccccc2)sc2c1CCC2 [1-F11, 2-(2-{[4-phenyl-5-(pyridin-3-yl)-4H-1,2,4-triazol-3-yl]sulfanyl]acet-amido)-4H,5H,6H-cyclopenta[b]-thiophene-3-carboxamide] | 13%
29 | Cc1ccccc1-n1c(SCC(=O)Nc2sc3c(c2C(N)=O)CCC3)nnc1-c1cccnc1 [1-G1, 2-(2-{[4-(2-methylphenyl)-5-(pyridin-3-yl)-4H-1,2,4-triazol-3-yl]sulfanyl}acet-amido)-4H,5H,6H-cyclopenta[b]thiophene-3-carboxamide] | 141%

Reference: patent US10844023B2 (Washington University, priority 2017, dated 2020)
